Experimental data published in patent publication US8722123B2, “Antimicrobial composition and use as food treatment” (priority 2008, dated 2014).
Marks after values point to notes of the source that are not given here.

Key:
alfalfa seed = experiment: Seed germination percentage; settings: treated for 1 hour at 21° C.
Procedure: To determine the germination percentage, treated and control seeds (5 gram per replicate) were placed on the surface of a plastic tray. A second tray containing 200 ml of sterile deionized water was placed with tray with seeds and water dropped into lower tray to maintain uniform moisture. The seeds were incubated at approximately 22° C. for 72 h.

[1] = tested on: S. typhimurium DT 104 on alfalfa seeds; experiment: S. typhimurium DT 104 inactivation on alfalfa seeds; format: cell-based, Salmonella typhimurium DT104; parameters: key to S. typhimurium DT 104 counts on seeds: +: Below the minimum detection level by direct plating (<1.7 log CFU/ml), but positive by enrichment culture.; −: Negative by direct plating and enrichment culture; settings: for S. typhimurium DT 104 counts on seeds: alfalfa seeds inoculated with 10^8 CFU/g

For `[Ca+2].[O-]Cl.[O-]Cl` [20,000 ppm, Ca(OCl)2, pH 11.4, calcium hypochlorite], the “germination rate of alfalfa seed” value (alfalfa seed) was 47.3%, the “S. typhimurium DT 104 counts on seeds” value ([1]; dried 4 h at 21° C., 0 min of exposure) was “+^b (Below the minimum detection level by direct plating (<1.7 log CFU/ml), but positive by enrichment culture.)” and the “S. typhimurium DT 104 counts on seeds” value ([1]; dried 4 h at 21° C., 1 min of exposure) was “−^c”. For the same compound, the “S. typhimurium DT 104 counts on seeds” value ([1]; dried 4 h at 21° C., 2 min of exposure) was “−”, the “S. typhimurium DT 104 counts on seeds” value ([1]; dried 4 h at 21° C., 5 min of exposure) was “−” and the “S. typhimurium DT 104 counts on seeds” value ([1]; dried 4 h at 21° C., 10 min of exposure) was “−”. The “S. typhimurium DT 104 counts on seeds” value ([1]; dried 4 h at 21° C., 20 min of exposure) was “−”, the “S. typhimurium DT 104 counts on seeds” value ([1]; dried 4 h at 21° C., 30 min of exposure) was “−” and the “S. typhimurium DT 104 counts on seeds” value ([1]; dried 4 h at 21° C., 60 min of exposure) was “−”. For the same compound, the “S. typhimurium DT 104 counts on seeds” value ([1]; dried 24 h at 21° C., 0 min of exposure) was “+ (Below the minimum detection level by direct plating (<1.7 log CFU/ml), but positive by enrichment culture.)”, the “S. typhimurium DT 104 counts on seeds” value ([1]; dried 24 h at 21° C., 1 min of exposure) was “+ (Below the minimum detection level by direct plating (<1.7 log CFU/ml), but positive by enrichment culture.)” and the “S. typhimurium DT 104 counts on seeds” value ([1]; dried 24 h at 21° C., 2 min of exposure) was “−”. The “S. typhimurium DT 104 counts on seeds” value ([1]; dried 24 h at 21° C., 5 min of exposure) was “−”, the “S. typhimurium DT 104 counts on seeds” value ([1]; dried 24 h at 21° C., 10 min of exposure) was “−” and the “S. typhimurium DT 104 counts on seeds” value ([1]; dried 24 h at 21° C., 20 min of exposure) was “−”. The “S. typhimurium DT 104 counts on seeds” value ([1]; dried 24 h at 21° C., 30 min of exposure) was “−”, the “S. typhimurium DT 104 counts on seeds” value ([1]; dried 24 h at 21° C., 60 min of exposure) was “−” and the “S. typhimurium DT 104 counts on seeds” value ([1]; dried 48 h at 21° C., 0 min of exposure) was “+ (Below the minimum detection level by direct plating (<1.7 log CFU/ml), but positive by enrichment culture.)”. The “S. typhimurium DT 104 counts on seeds” value ([1]; dried 48 h at 21° C., 1 min of exposure) was “+ (Below the minimum detection level by direct plating (<1.7 log CFU/ml), but positive by enrichment culture.)”, the “S. typhimurium DT 104 counts on seeds” value ([1]; dried 48 h at 21° C., 2 min of exposure) was “−” and the “S. typhimurium DT 104 counts on seeds” value ([1]; dried 48 h at 21° C., 5 min of exposure) was “−”. For the same compound, the “S. typhimurium DT 104 counts on seeds” value ([1]; dried 48 h at 21° C., 10 min of exposure) was “+ (Below the minimum detection level by direct plating (<1.7 log CFU/ml), but positive by enrichment culture.)”, the “S. typhimurium DT 104 counts on seeds” value ([1]; dried 48 h at 21° C., 20 min of exposure) was “−” and the “S. typhimurium DT 104 counts on seeds” value ([1]; dried 48 h at 21° C., 30 min of exposure) was “−”. For the same compound, the “S. typhimurium DT 104 counts on seeds” value ([1]; dried 48 h at 21° C., 60 min of exposure) was “−”, the “S. typhimurium DT 104 counts on seeds” value ([1]; dried 72 h at 21° C., 0 min of exposure) was “−” and the “S. typhimurium DT 104 counts on seeds” value ([1]; dried 72 h at 21° C., 1 min of exposure) was “−”. For the same compound, the “S. typhimurium DT 104 counts on seeds” value ([1]; dried 72 h at 21° C., 2 min of exposure) was “−”, the “S. typhimurium DT 104 counts on seeds” value ([1]; dried 72 h at 21° C., 5 min of exposure) was “−” and the “S. typhimurium DT 104 counts on seeds” value ([1]; dried 72 h at 21° C., 10 min of exposure) was “−”. The “S. typhimurium DT 104 counts on seeds” value ([1]; dried 72 h at 21° C., 20 min of exposure) was “+ (Below the minimum detection level by direct plating (<1.7 log CFU/ml), but positive by enrichment culture.)”, the “S. typhimurium DT 104 counts on seeds” value ([1]; dried 72 h at 21° C., 30 min of exposure) was “+ (Below the minimum detection level by direct plating (<1.7 log CFU/ml), but positive by enrichment culture.)” and the “S. typhimurium DT 104 counts on seeds” value ([1]; dried 72 h at 21° C., 60 min of exposure) was “−”. The “Salmonella level after treatment” value ([1]; seeds dried 24 h, 48 h, or 72 h, 5 min) was “undetectable by direct plating, but still detectable by enrichment culture”.
